Measurements from patent US8124121B2, “Flavors, flavor modifiers, tastants, taste enhancers, umami or sweet tastants, and/or enhancers and use thereof” (Senomyx, Inc., priority 2003, dated 2012).

target: T1, hT1R1/hT1R3 umami receptor (Homo sapiens, UniProt Q7RTX0+Q7RTX1); assay: Umami taste enhancement activity assay (EC50 ratio vs. MSG); type: cell-based; details: Table A; compound @ 0.3 uM
T1 construct: expressed in transfected cells; host or cells: HEK293 derivative stably expressing Gα15, clone I-17, expression induced with mifepristone
T1 sequence (Q7RTX1 21-841): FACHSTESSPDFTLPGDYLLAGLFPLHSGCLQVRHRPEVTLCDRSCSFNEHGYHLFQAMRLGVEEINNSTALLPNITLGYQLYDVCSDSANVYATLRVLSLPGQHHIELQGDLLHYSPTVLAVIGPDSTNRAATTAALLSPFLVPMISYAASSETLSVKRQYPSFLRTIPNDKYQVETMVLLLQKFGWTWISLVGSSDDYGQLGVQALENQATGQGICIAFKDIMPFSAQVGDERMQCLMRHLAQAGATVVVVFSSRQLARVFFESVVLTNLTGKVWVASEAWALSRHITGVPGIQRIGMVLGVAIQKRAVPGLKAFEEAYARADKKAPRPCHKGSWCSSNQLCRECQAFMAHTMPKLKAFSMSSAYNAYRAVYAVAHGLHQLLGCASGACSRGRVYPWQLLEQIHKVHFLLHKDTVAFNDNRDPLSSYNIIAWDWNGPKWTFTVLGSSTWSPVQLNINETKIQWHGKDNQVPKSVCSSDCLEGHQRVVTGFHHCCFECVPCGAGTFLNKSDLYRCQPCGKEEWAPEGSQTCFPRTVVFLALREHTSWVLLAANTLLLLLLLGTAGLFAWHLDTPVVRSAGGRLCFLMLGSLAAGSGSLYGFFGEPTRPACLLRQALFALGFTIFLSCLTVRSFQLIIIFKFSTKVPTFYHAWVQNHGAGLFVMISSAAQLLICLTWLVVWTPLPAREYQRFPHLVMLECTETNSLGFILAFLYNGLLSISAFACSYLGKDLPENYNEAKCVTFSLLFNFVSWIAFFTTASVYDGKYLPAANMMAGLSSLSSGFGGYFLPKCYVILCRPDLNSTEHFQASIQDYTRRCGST
T1 sequence (Q7RTX0 21-852): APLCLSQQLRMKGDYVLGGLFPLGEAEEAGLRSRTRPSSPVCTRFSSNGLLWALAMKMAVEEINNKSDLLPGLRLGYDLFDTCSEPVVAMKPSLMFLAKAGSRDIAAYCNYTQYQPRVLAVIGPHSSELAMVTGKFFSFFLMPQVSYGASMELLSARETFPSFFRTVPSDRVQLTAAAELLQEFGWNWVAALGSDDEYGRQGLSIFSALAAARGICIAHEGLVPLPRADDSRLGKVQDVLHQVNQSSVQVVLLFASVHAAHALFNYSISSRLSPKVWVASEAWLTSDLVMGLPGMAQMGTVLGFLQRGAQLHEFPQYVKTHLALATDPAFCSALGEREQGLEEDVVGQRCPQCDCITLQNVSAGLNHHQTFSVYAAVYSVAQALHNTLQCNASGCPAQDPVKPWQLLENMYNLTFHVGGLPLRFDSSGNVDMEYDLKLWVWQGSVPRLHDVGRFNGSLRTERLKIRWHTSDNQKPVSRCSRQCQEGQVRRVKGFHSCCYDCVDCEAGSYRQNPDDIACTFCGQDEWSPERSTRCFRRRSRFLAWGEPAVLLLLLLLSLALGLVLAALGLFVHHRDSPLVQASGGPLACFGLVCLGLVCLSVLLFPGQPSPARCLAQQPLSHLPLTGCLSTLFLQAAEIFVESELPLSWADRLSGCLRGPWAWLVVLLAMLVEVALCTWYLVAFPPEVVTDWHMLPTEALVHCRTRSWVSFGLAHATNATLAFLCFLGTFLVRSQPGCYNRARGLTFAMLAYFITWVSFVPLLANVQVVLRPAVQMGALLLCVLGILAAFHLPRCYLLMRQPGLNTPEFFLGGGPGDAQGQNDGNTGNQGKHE
Description: A series of measurements of the dose response is run in solutions comprising MSG alone, then a second dose response is run with MSG in combination with predetermined amounts of a candidate compound of Formula (I) at the same time.
Typical compound concentrations tested were 30 μM, 10 μM, 3 μM, 1 μM, 0.3 μM, 0.1 μM and 0.03 μM. The relative efficacy of compounds of Formula (I) at enhancing the receptor was determined by calculating the magnitude of a shift in the EC50 for monosodium glutamate. Enhancement was defined as a ratio (EC50R) corresponding to the EC50 of monosodium glutamate, determined in the absence of the test compound, divided by the EC50 of monosodium glutamate, determined in the presence of the test compound.
Stated alternatively, “EC50 ratio” as compared to MSG is calculated based on the following definitions: EC50 Ratio vs. MSG=EC50 (MSG)/EC50(MSG+[Compound]) • wherein “[compound]” refers to the concentration of the compound of Formula (I) used to elicit (or enhance or potentiate) the MSG dose response.

Ec50 ratio (vs. MSG)	SMILES
6.5	CCC(COC)NC(=O)c1cc2cc(Cl)ccc2o1 (stereo not drawn) [Example A11, 5-chloro-N-(1-methoxybutan-2-yl)benzofuran-2-carboxamide]

same assay, conditions: Table A; compound @ 1 uM

SMILES	Ec50 ratio (vs. MSG)
CCCC(CCC)NC(=O)c1cc2cc(OC)ccc2o1 [Example A10, N-(heptan-4-yl)-5-methoxybenzofuran-2-carboxamide]	4.51
Cc1ccc(C(=O)NC2CCCc3ccccc32)s1 (stereo not drawn) [Example A39, 5-Methyl-thiophene-2-carboxylic acid (1,2,3,4-tetrahydro-naphthalen-1-yl)-amide]	2.3

Second part, the molecule after the results:

Ec50 ratio (vs. MSG)	SMILES
3.8	COc1cccc(C(=O)NC2CCCc3ccccc32)c1O (stereo not drawn) [Example A87, 2-hydroxy-3-methoxy-N-(1,2,3,4-tetrahydronaphthalen-1-yl)benzamide]
5.7	COc1cccc(C(=O)N[C@H]2CCCc3ccccc32)c1O [Example A93, (S)-2-hydroxy-3-methoxy-N-(1,2,3,4-tetrahydronaphthalen-1-yl)benzamide]

same assay, conditions: Table C; compound Con. 0.3 uM

Ec50 ratio (vs MSG)	SMILES
2.1	CCOc1ccc(NC(=O)NC2CCCCC2C)cc1 (stereo not drawn) [Example C10, 1-(4-ethoxyphenyl)-3-(2-methylcyclohexyl)urea]

same assay, conditions: Table D; compound @ 1 uM

Ec50 ratio (vs. MSG)	SMILES
6.3	CCCC(CCC)NC(=O)/C=C/c1cccs1 [Example D6, N-(1-Propyl-butyl)-3-thiophen-2-yl-acrylamide]

same assay, conditions: compound present at 0.01 μM

EC50 ratio (enhanced the effectiveness of monosodium glutamate)	SMILES
13.18	COC(=O)[C@@H](CC(C)C)NC(=O)c1ccc(OC)c(Cl)c1 [Example 62, (R)-methyl 2-(3-chloro-4-methoxybenzamido)-4-methylpentanoate]

same assay, conditions: compound present at 0.03 μM

EC50 ratio (enhanced the effectiveness of monosodium glutamate)	SMILES
3.68	CCCC(CCC)NC(=O)c1ccc2c(c1)OC(C)O2 (stereo not drawn) [Example 18, N-(heptan-4-yl)-2-methylbenzo[d][1,3]dioxole-5-carboxamide]

same assay, conditions: compound present at 0.3 μM

SMILES	EC50 ratio (enhanced the effectiveness of monosodium glutamate)
O=C(NC1CCCc2ccccc21)c1ccc2c(c1)OCO2 (stereo not drawn) [Example 7, N-(1,2,3,4-tetrahydronaphthalen-1-yl)benzo[d][1,3]dioxole-5-carboxamide]	7.8
CCCC(CCC)NC(=O)c1cc2ccccc2o1 [Example 25, Benzofuran-2-carboxylic(1-propylbutyl)amide]	2.6
CCC(CC)NC(=O)c1ccc(OC)c(Cl)c1 [Example 61, 3-chloro-4-methoxy-N-(pentan-3-yl)benzamide]	6.28
CCCC(CCC)NC(=O)/C=C/c1ccc(OC)c(OC)c1 [Example 87, 3-(3,4-Dimethoxy-phenyl)-N-(1-propyl-butyl)-acrylamide]	2.4
O=C(NC1CCc2ccccc21)c1ccc2c(c1)OCO2 (stereo not drawn) [Example 118, Benzo[1,3]dioxole-5-carboxylic Acid indan-1-ylamide]	5.33

Now from value to molecule:

EC50 ratio (enhanced the effectiveness of monosodium glutamate)	SMILES
2.7	COc1ccc(C(=O)N[C@H](C)c2ccccc2)cc1Cl [Example 63, (R)-3-chloro-4-methoxy-N-(1-phenylethyl)benzamide]
7	Cc1cc(C(=O)NC(C)CCc2ccccc2)ccc1O (stereo not drawn) [Example 111, 4-Hydroxy-3-methyl-N-(1-methyl-3-phenyl-propyl)-benzamide]
18.85	COc1ccccc1CNC(=O)C(=O)NCCc1ccccn1 [Example 122, N-(2-Methoxy-benzyl)-N′-(2-pyridin-2-yl-ethyl)-oxalamide]
7.61	CCCC(CCC)NC(=O)Nc1ccc(OC)cc1OC [Example 159, 1-(2,4-dimethoxyphenyl)-3-(heptan-4-yl)urea]

same assay, conditions: compound present at 1 μM

SMILES	EC50 ratio (enhanced the effectiveness of monosodium glutamate)
CC1CCCC(NC(=O)c2ccc3c(c2)OCO3)C1C (stereo not drawn) [Example 4, N-(2,3-dimethylcyclohexyl)benzo[d][1,3]dioxole-5-carboxamide]	8.4
CCCC(CCC)NC(=O)c1ccc2c(c1)OC(F)(F)O2 [Example 22, 2,2-difluoro-N-(heptan-4-yl)benzo[d][1,3]dioxole-5-carboxamide]	2.87
CCCC(CCC)NC(=O)c1ccc(OC)cc1C#N [Example 97, 2-cyano-N-(heptan-4-yl)-4-methoxybenzamide]	4.52
CCCC(CCC)NC(=O)Nc1ccccc1Cl [Example 158]	4.95

Next, values leading:

EC50 ratio (enhanced the effectiveness of monosodium glutamate)	SMILES
3.3	Cc1ccc(CCNC(=O)c2occc2C)cc1 [Example 120, 3-methyl-N-(p-tolylethyl)furan-2-carboxamide]
11	COc1ccc(CNC(=O)c2ccccc2-n2cccc2)c(OC)c1 [Example 121, N-(2,4-dimethoxybenzyl)-2-(1H-pyrrol-1-yl)benzamide]
4.2	CCOc1ccc(NC(=O)NCCc2ccccn2)cc1 [Example 160, 1-(4-ethoxyphenyl)-3-(2-(pyridine-2-yl)ethyl)urea]

same assay, conditions: compound present at 3 μM

SMILES	EC50 ratio (enhanced the effectiveness of monosodium glutamate)
CC(C)C[C@H](CO)NC(=O)c1ccc2c(c1)OCO2 [Example 8, (R)—N-(1-hydroxy-4-methylpentan-2-yl)benzo[d][1,3]dioxole-5-carboxamide]	2
CCCC(COC(C)=O)NC(=O)c1ccc2c(c1)OCO2 (stereo not drawn) [Example 14, 2-(benzo[d][1,3]dioxole-6-carboxamido)pentyl Acetate]	4.1
CCCC(CCC)NC(=O)c1ccc2c(c1)OC(CC(=O)OCC)O2 (stereo not drawn) [Example 19, Ethyl 2-(5-(heptan-4-ylcarbamoyl)benzo[d][1,3]dioxol-2-yl)acetate]	2.5
CCCC(CCC)NC(=O)c1ccc2c(c1)OC(C(C)C)O2 (stereo not drawn) [Example 21, N-(heptan-4-yl)-2-isopropylbenzo[d][1,3]dioxole-5-carboxamide]	2.2
O=C(NCc1ccc(OC(F)(F)F)cc1)c1ccsc1 [Example 107, Thiophene-3-carboxylic acid 4-trifluoromethoxy-benzylamide]	8.5

Continued, values first:

EC50 ratio (enhanced the effectiveness of monosodium glutamate)	SMILES
5.8	COc1ccc(CNC(=O)c2sccc2C)c(OC)c1 [Example 108, 3-Methyl-thiophene-2-carboxylic Acid 2,4-dimethoxy-benzylamide]
8	COc1ccc(CNC(=O)c2ccc(-c3ccccn3)s2)c(OC)c1 [Example 109, 5-Pyridin-2-yl-thiophene-2-carboxylic Acid 2,4-dimethoxy-benzylamide]
7.9	COc1ccc(CNC(=O)c2ccnn2C)c(OC)c1 [Example 110, 2-Methyl-2H-pyrazole-3-carboxylic Acid 2,4-dimethoxy-benzylamide]
